Results taken from patent publication US10548861B2 (Academia Sinica, priority 2015, dated 2020).
Where two headings read alike, the source gives them in different places.

Assays:
H647 (KRAS) = assay: cells; format: cell-based; settings: Homo sapiens, NCI-H647
H526 = assay: 72 hr cytotoxicity: SCLC variant; format: cell-based; settings: Homo sapiens, NCI-H526
ORA = assay: Cytotoxicity: Ewing's sarcoma; settings: Homo sapiens, read-out: cytotoxic activity (IC50)
Ly8 = assay: Cytotoxicity: DLBCL GCB; settings: read-out: cytotoxicity IC50, single agent
Procedure: (§1) After 72 hours, the cultures were pulsed with Alamar Blue overnight, and the fluorescent intensity of resulted cultures was measured by a Synergy H1 plate-reader (BioTek Inc). […] When human CD34+ cells were used for drug screen, 500˜1,000 cells/well were cultured in the presence of 20 ng/ml KL, 20 ng/ml IL-3, 20 ng/ml G-CSF and 6 units/ml EPO for 7-10 days prior to an addition of Alamar Blue.

[1] = Pharmacokinetics, IV bolus 10 mg/kg (HPLC-PDA); format: in vivo, Sprague-Dawley rats; settings: rat, IV 10 mg/kg
Procedure: Serial blood samples were collected from the jugular vein at 0, 5, 10, 15, 30, 45, 60, 90, 120, 150, 180, 240, 300, 360 min after dosing. […] All pharmacokinetic analysis was carried out using the WinNonlin Standard Edition Version 1.0 (Scientific Consulting Inc., Apex, N.C., USA).

H1703 = assay: cells; format: cell-based; settings: Homo sapiens, NCI-H1703
[2] = tested on: lymphoma cell lines (DLBCL GBC and ABC subtypes, mantle cell lymphoma); assay: Cytotoxicity on panel of lymphoma cell lines; format: cell-based, human; settings: for IC50: Homo sapiens
[3] = tested on: A204 rhabdomyosarcoma xenografts; assay: Rhabdomyosarcoma xenograft; format: in vivo, Nude mice; settings: 30 mg/kg alternate days, five doses
[4] = tested on: normal cord blood CD34+ cells; assay: Cytotoxicity on normal cord blood CD34+ cells; format: cell-based; settings: Homo sapiens
HFL1 = assay: 72 hr cytotoxicity: fetal lung fibroblast; format: cell-based; settings: Homo sapiens; HFL1, 72 hr
A549 = assay: cells; format: cell-based; settings: Homo sapiens
[5] = tested on: Cord Blood CD34+ cells (no FCS); assay: Cytotoxicity: CB CD34+ cells (no FCS); format: cell-based; settings: Homo sapiens
[6] = tested on: Jako-1 (JEKO-1-GFP-Luc) mantle cell lymphoma cells; assay: Mantle cell lymphoma xenograft, bioimaging; format: in vivo, NSG mice
Excerpt: The Jako-1 mantle cell lymphoma cell line was labeled with GFP/Luciferase and 500,000 cells injected intravenously into each of 10 NSG female mice at 12 wks of age.

H1781 (HER2/4) = assay: cells; format: cell-based; settings: Homo sapiens, NCI-H1781
N-417 = assay: 72 hr cytotoxicity: SCLC variant; format: cell-based; settings: Homo sapiens, N417
LY1 = settings: human
Procedure: as §1

IARC-EW1 = assay: Cytotoxicity: Ewing's sarcoma; settings: Homo sapiens, read-out: cytotoxic activity (IC50)
CL100T1 = assay: cells; format: cell-based; settings: Homo sapiens
MG63 = assay: Cytotoxicity: Osteosarcoma; settings: Homo sapiens, MG-63, read-out: cytotoxic activity (IC50)
DMS-79 = assay: 72 hr cytotoxicity: SCLC classic; format: cell-based; settings: Homo sapiens
SHP77 = assay: Cytotoxicity: SCLC variant large cell; format: cell-based; settings: Homo sapiens, SHP77, SHP77 / SHP-77

For `CN(C)CCNC(=O)c1cccc(NC(=O)Nc2ccc(N(CCCl)CCCl)cc2)c1.Cl` [BO-1055, ureidomustine], the IC50 (H647 (KRAS)) was ≥ 10 µM, the IC50 (H526) was 0.12 µM and the IC50 (ORA) was 0.32 µM. The IC50 (Ly8) was 0.394 µM, the tissue distribution [1] was “accumulated mainly in the kidney, with only a limited amount detected in the brain” and the IC50 (H1703) was 1.67 µM. For the same compound, the TI ([2]; 14 moderately sensitive lymphoma lines) was 2.04-9.03, the IC50 ([2]; 4 TP53 wild type lines, read-out: IC50 range) was 0.12 to 7.02 µM and the IC50 ([2]; 11 of 27 lymphoma lines, highly sensitive, read-out: IC50 range) was 0.12 to 0.84 µM. It also gave an IC50 ([2]; 14 of 27 lymphoma lines, moderately sensitive, read-out: IC50 range) of 1.08 to 4.9 µM, an IC50 ([2]; eight lines with TP53 mutations, read-out: IC50 range) of 0.29 to 4.9 µM and an IC50 ([2]; mutated/rearranged/amplified BCL2 lines, read-out: IC50 range) of 0.29 to 4.9 µM. For the same compound, the IC50 ([2]; two resistant lymphoma lines, read-out: IC50) was > 10 µM, the Therapeutic window ([2]; human B-cell lymphomas vs various normal human cell types) was 50-100 fold and the tumor response [3] was “Complete regression of tumors”. The IC50 [4] was 9.01 to 15 µM, the IC50 ([4]; 72 h) was 15 µM and the IC50 (HFL1) was 14.2 µM. For the same compound, the IC50 (A549) was 1.4 µM, the IC50 [5] was 9.01 µM and the tumor ([6]; 30 mg/kg i.v. every other day for 10 days from day 15, 7 wks) was “no grossly observable tumor in any of the five mice”. The survival ([6]; 75 days) was “all alive at 75 days”, the IC50 (H1781 (HER2/4)) was 0.39 µM and the IC50 (N-417) was 30 µM. The IC50 (LY1) was 3.09 µM, the IC50 (IARC-EW1) was 0.43 µM and the IC50 (CL100T1) was ≥ 10 µM. For the same compound, the IC50 (MG63) was 2.67 µM, the IC50 (DMS-79) was 0.05 µM and the IC50 (SHP77) was ≥ 40 µM.
